Experimental data taken from patent US20070060636A1, “High enantiomeric purity dexanabinol for pharmaceutical compositions” (priority 2002, published 2007).

Columns and labels:
[1] = plasma and brain concentrations after bolus i.v. 4 mg/kg; format: in vivo, Sprague Dawley rats
Description: (§1) The pharmacokinetics of dexanabinol of high enantiomeric purity formulated in CREMOPHOR EL®:ethanol as described in Example 4 were investigated in rats, rabbits, and monkeys following intravenous administration of single doses, and 14 and 28 days of repeated dosing. Human pharmacokinetics was studied during Phase I and Phase II clinical studies. Dexanabinol used in the pharmacokinetic studies was formulated as drug concentrates of 50 and 100 mg/ml and diluted with sterile 0.9% NaCl solution prior to intravenous (i.v.) administration to the desired final doses. Determination of dexanabinol concentrations in plasma and brain extracts was carried out using a validated Gas Chromatography-Mass Spectra (GC-MS) assay following solid phase extraction of the drug and derivatization. The limit of quantitation of the assay is 0.1 ng/ml.
Brain pharmacokinetic parameters in animal studies were estimated by non-compartmental methods similar to those used for plasma data with the addition of an estimate of the time of maximum concentration (Tmax) which was assumed to be zero for the plasma data. Cmax is the concentration corresponding to Tmax. AUCz and AUC∞ were calculated as described above. Kp, brain-to-plasma partition coefficient, was determined by means of the area method and using the equation: Kp=AUC∞ brain/AUC∞ plasma […]

[2] = single dose toxicity and pharmacokinetics, rabbit; format: in vivo, New Zealand White rabbits; conditions: for AUC(0-inf) / Cmax: plasma, single i.v. 25 mg/kg (NOAEL); for AUC∞ Ratio to Phase I / Cmax Ratio to Phase I / Cmax Ratio to Phase II: single i.v. 25 mg/kg; for AUC∞ Ratio to Phase I / Cmax Ratio to Phase I: vs human 150 mg Phase I; for Cmax Ratio to Phase II: vs human 150 mg Phase II
Description: as §1
Pharmacokinetic parameters were estimated by a non-compartmental method using WinNonlin Professional version 3.2 (Pharsight Corp., Mountain View, Calif.). The maximum plasma concentration (Cmax), when the drug is administered by infusion, is the concentration at the end of infusion. The Cmax following intravenous bolus administration is the value estimated by the software to be the concentration at t=0. The terminal slope (X) was estimated by linear regression through the last time points and used to calculate the terminal half-life (t1/2) from the following equation: t1/2=0.693/λ The area under the curve from time of dosing through the last time point (AUCz) was calculated by the linear trapezoid method. The AUC extrapolated to infinity (AUC∞) was calculated from the following equation: AUC∞=AUCz+Cz/λ where Cz is the concentration at the last time point predicted by the linear regression. AUC∞ was normalized for dose (mg/kg) and presented as AUC∞/Dose. Mean residence time (MRT), when the drug is administered by infusion is described by the following equation: MRT=(AUMC/AUC)−(TI)/2 Mean residence time after i.v. bolus administration is described by the following equation: MRT=(AUMC/AUC) where AUMC is the area under the first moment curve and TI is the length of infusion. Plasma clearance (CL), and the apparent volume of distribution at steady state (Vss) were calculated from the following equations: CL=Dose/AUC∞ Vss=MRT×CL
Table 6 summarizes the maximum plasma concentration (Cmax) and the area under the plasma concentration versus time curve (AUC) observed at the NOAEL doses cited above, as well as the animal to human exposure ratios (ER) for dexanabinol of high enantiomeric purity, expressed as the ratio of the pharmacokinetic (PK) parameter to that observed for a 150 mg dose in a Phase I study in human volunteers and in Phase II study in patients suffering from severe traumatic brain injury (TBI).

[3] = international clinical trials, safety; format: in vivo, human; conditions: more than 500 patients exposed, dexanabinol CREMOPHOR EL:ethanol product
Excerpt: A Safety Committee appointed to monitor patient data to ensure patient safety analyzed patients' data after the enrollment and in all cases the safety committee found the drug safe.

CB1 mediated activity = test: mice tetrad assay (suppression of spontaneous activity, hypothermia, catalepsy); format: in vivo; conditions: 50 mg/kg intravenously, dexanabinol according to the invention
Excerpt: The prepared sample was further tested for suppression of spontaneous activity, hypothermia, and catalepsy measured in the mice tetrad assay, and clearly produced adverse effects. […] Finally, it caused significant catalepsy, with the animals remaining immobile on the beam for almost 30 seconds.
Psychoactive cannabinoids have a variety of pharmacological effects that are evoked through interactions with the CB1 receptors predominantly expressed in the brain. The central nervous system effects that occur after in vivo exposure to HU-210 include euphoria, hypokinesia, hypothermia, anti-nociception, and catalepsy. Hypokinesia, hypothermia, anti-nociception, and catalepsy are the activities that form the basis of the “Tetrad assay” of CB1 mediated activity. […] The threshold for psychomimetic effects of oral THC in humans is in the range of 10-15 mg THC in an adult, i.e from about 0.16 to about 0.25 mg THC/kg body weight for adults of approximately 60 kg (“Cannabis and Cannabinoids, pharmacology, toxicology and therapeutic potential” edited by Grotenhermen and Russo, the Haworth Integrative Healing Press; Chapter 31 pp 345 and 351).
Dexanabinol according to the present invention was tested for suppression of spontaneous activity, hypothermia, and catalepsy in the mice tetrad assay.

[4] = New Zealand White, iv, rabbit female
[5] = New Zealand White, iv, rabbit male
[6] = both sexes, New Zealand White, iv, rabbit male & female

Q: Which “time after injection at which brain concentrations equilibrated with plasma concentration” value ([1]; male and female averaged) does the source give for `CCCCCCC(C)(C)c1cc(O)c2c(c1)OC(C)(C)[C@H]1CC=C(CO)C[C@H]21` [dexanabinol, 1,1-dimethylheptyl-(3S,4S)-7-hydroxy-Δ^6-tetrahydrocannabinol] here?
A: Its value is “about 30 minutes”.

Q: And the “differences between genders in some plasma pharmacokinetic parameters” value ([1]; plasma)?
A: Its value is 2-3 fold.

Q: And the AUC(0-inf) [2, 4]?
A: The AUC(0-inf) was 16200 ng·h/mL.

Q: And the Cmax [2, 4]?
A: Its Cmax is 34500 ng/mL.

Q: And the AUC(0-inf) [2, 5]?
A: The AUC(0-inf) was 20100 ng·h/mL.

Q: What about the Cmax [2, 5] of the same molecule?
A: Its Cmax is 33800 ng/mL.

Q: What about the NOAEL ([2]; New Zealand White, rabbit, in vivo, iv, single dose i.v., read-out: no observed adverse effect level (NOAEL)) of the same molecule?
A: The NOAEL was 25 mg/kg.

Q: And the AUC(0-inf) [2, 6]?
A: The AUC(0-inf) was 18200 ng·h/mL.

Q: And the Cmax [2, 6]?
A: The Cmax was 33400 ng/mL.

Q: What about the “AUC∞ Ratio to Phase I” value ([2]; rabbit female) of the same molecule?
A: Its value is 5.1.

Q: What about the “Cmax Ratio to Phase I” value ([2]; rabbit female) of the same molecule?
A: Its value is 6.9.

Q: What about the “Cmax Ratio to Phase II” value ([2]; rabbit female) of the same molecule?
A: The value was 17.6.

Q: What about the “AUC∞ Ratio to Phase I” value ([2]; rabbit male & female) of the same molecule?
A: Its value is 5.7.

Q: What about the “Cmax Ratio to Phase I” value ([2]; rabbit male & female) of the same molecule?
A: The value was 6.7.

Q: And the “Cmax Ratio to Phase II” value ([2]; rabbit male & female)?
A: Its value is 17.0.

Q: What about the “AUC∞ Ratio to Phase I” value ([2]; rabbit male) of the same molecule?
A: Its value is 6.3.

Q: What about the “Cmax Ratio to Phase I” value ([2]; rabbit male) of the same molecule?
A: The value was 6.8.

Q: What about the “Cmax Ratio to Phase II” value ([2]; rabbit male) of the same molecule?
A: The value was 17.2.

Q: What about the serious adverse reactions [3] of the same molecule?
A: Its serious adverse reactions is “no serious adverse reactions were reported”.

Q: What about the “adverse effect in tetrad assay” value (CB1 mediated activity) of the same molecule?
A: Its value is “no adverse effect”.
